{"source": "patent US8128963B2", "about": "“Methods for treating ischemic disorders using carbon monoxide” (The Trustees of Columbia University in the City Of New York, priority 1999, dated 2012)", "key": {"[1]": {"system": "mouse model of cerebral ischemia and reperfusion (stroke)", "format": "in vivo", "protocol": "In stroke and other ischemic disorders, there may be clinical benefit derived by lysing an existing thrombus, but there is also the potentially devastating complication of hemorrhage. In the current experiments, the mouse model of cerebral ischemia and reperfusion (stroke) was used. […]\nMurine stroke model. Transient focal cerebral ischemia was induced in mice by intralumenal occlusion of the middle cerebral artery (45 minutes) and reperfusion (22 hrs) as previously reported ^7. Serial measurements of relative cerebral blood flow (CBF) were recorded via laser doppler flowmetry ^7, and infarct volumes (% ipsilateral hemisphere) determined by planimetric/volumetric analysis of triphenyl tetrazolium chloride (TTC)-stained serial cerebral sections ^7.\nPreparation of Factor IXai ^13: Factor IXai was prepared by selectively modifying the active site histidine residue on Factor IXa, using dansyl-glu-gly-arg-chloromethylketone. Proplex was applied to a preparative column containing immobilized calcium-dependent monoclonal antibody to Factor IX. […] Purified Factor IXa was reacted with a 100-fold molar excess of dansyl-glu-gly-arg chloromethylketone, and the mixture dialyzed. […] IXai was subsequently frozen into aliquots at −80° C. until the time of use. For those experiments in which IXai was used, it was given as a single intravenous bolus at the indicated times and at the indicated doses."}, "[2]": {"system": "platelet accumulation in ipsilateral hemisphere", "test": "111Indium-platelet accumulation in stroke", "format": "in vivo, mouse", "details": "300 μg/kg prior to occlusion, vs vehicle", "protocol": "^111Indium-platelet studies: Platelet accumulation was determined using ^111Indium labeled platlets, collected and prepared as previously described ^8. Immediately prior to surgery, mice were given 5×10^6 111In-labeled-platelets intravenously; deposition was quantified after 24 hours by as ipsilateral cpm/contralateral cpm."}, "cross-linked fibrin": {"system": "cross-linked fibrin", "test": "Fibrin immunoblotting in stroke brain", "format": "in vivo, mouse", "details": "300 μg/kg prior to stroke", "protocol": "Fibrin immunoblotting/immunostaining. The accumulation of fibrin was measured following sacrifice (of fully heparinized animals) using immunoblotting/immunostaining procedures which have been recently described and validated ^9. Because fibrin is extremely insoluble, brain tissue extracts where prepared by plasmin digestion, then applied to a standard SDS-polyacrylamide gel for electrophoresis, followed by immunoblotting using a polyclonal rabbit anti-human antibody prepared to gamma-gamma chain dimers present in cross-linked fibrin which can detect murine fibrin, with relatively little cross-reactivity with fibrinogen ^10. Fibrin accumulation was reported as an ipsilateral to contralateral ratic. In additional experiments, brains were embedded in paraffin, sectioned, and immunostained using the same anti-fibrin antibody."}, "intracerebral hemorrhage": {"system": "intracerebral hemorrhage", "format": "in vivo, mouse", "protocol": "The hemoglobin content of brains subjected to the experimental procedures below was quantified using a spectrophotometric assay as follows. Whole brain tissue was obtained from freshly euthanized control or experimental animals, and each brain was treated individually as follows. Distilled water (250 μl) was added to each brain, followed by homogenization, for 30 sec (Brinkman Instruments, Inc., Westbury, N.Y.), sonification on ice with a pulse ultrasonicator for 1 minute (SmithKline Corporation, Collegeville, Pa.), and centrifugation at 13,000 rpm for 30 minutes (Baxter Scientific Products, Deerfield, Ill.). After collecting the hemoglobin-containing supernatant, 80 μl of Drabkin's reagent (purchased from Sigma Diagnostics, St. Louis, Mo; K3Fe(CN)6 200 mg/L, KCN 50 mg/L, NaHCO3 1 g/L, pH 8.6 ^25) was added to a 20 μl aliquot and allowed to stand for 15 minutes. This reaction converts hemoglobin to cyanomethemoglobin, which has an absorbance peak at 540 nm, and whose concentration can then be assesses by the optical density of the solution at ≈550 nm wavelength ^26. To validate that the measured absorbance following these procedures reflects the amount of hemoglobin, known quantities of bovine erythrocyte hemoglobin (Sigma, St. Louis, Mo.) were analyzed using similar procedures alongside every brain tissue assay. As an additional measure, blood was obtained from control mice by cardiac puncture following anesthesia. Incremental aliquots of this blood were then added to freshly homogenized brain tissue obtained from untreated mice to generate a standard absorbance curve.\nFocal cerebral ischemia was produced in animals by transient right middle cerebral artery occlusion using a method previously described in detail ^28,29. Briefly, a heat-blunted 12 or 13 mm 5-0 or 6-0 gauge nylon suture was passed into the right internal carotid artery to the level of the middle cerebral artery. After 45 minutes, the occluding suture was removed to reestablish perfusion. Immediately following removal of the occluding suture, animals received either intravenous tissue plasminogen activator (10 mg/kg in 0.2 ml normal saline solution, Stroke+rt-PA) or normal saline solution (Stroke+Saline) given by dorsal penile vein injection. At 24 hours, brain tissue was harvested immediately after rapid anesthetized decapitation. […] The other half of each brain was immersed in saline for an identical duration, and then subjected to the procedures described above for the spectrophotometric hemoglobin assay.\nThe degree of ICH was first scored visually by a blinded observer. […] Sections were inspected by a blinded observer and brains were given an ICH score from a graded scale based on maximal hemorrhage diameter seen on any of the sections [ICH score 0, no hemorrhage; 1, <1 mm; 2, 1-2 mm; 3, >2-3 mm; 4, >3 mm]. Slices from each brain were then pooled, homogenized, and then treated according to the procedures described above for the spectrophotometric hemoglobin assay.\nSpectrophotometric hemoglobin assay and visual ICH score: ICH was quantified by a spectrophotometric-based assay which we have developed and validated ^11,12. In brief, mouse brains were homogenized, sonicated, centrifuged, and methemoglobin in the supernatants converted (using Drabkin's reagent) to cyanomethemoglobin, the concentration of which was assessed by measuring O.D. at 550 nm against a standard curve generated with known amounts of hemoglobin. […]"}, "Protime and APTT in mice": {"test": "Protime and APTT in mice", "format": "in vivo, mouse", "details": "300 μg/kg, n=7", "source_text": "The potency of Factor IXai as an anticoagulant agent stems from the integral role of activated Factor IX in the coagulation cascade."}, "Factor IXa": {"biological_target": "T1, Factor IXa (Homo sapiens, UniProt P00740)", "T1 construct": "made in house", "T1 sequence (P00740 227-461 limits assumed)": "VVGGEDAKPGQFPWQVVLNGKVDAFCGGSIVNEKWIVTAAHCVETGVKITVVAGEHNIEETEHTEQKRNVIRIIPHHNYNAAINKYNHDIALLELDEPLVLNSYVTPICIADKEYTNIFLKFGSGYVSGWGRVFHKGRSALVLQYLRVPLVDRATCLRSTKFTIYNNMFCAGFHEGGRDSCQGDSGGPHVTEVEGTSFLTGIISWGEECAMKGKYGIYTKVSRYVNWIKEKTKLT", "T1 sequence (P00740 47-191 partner limits assumed)": "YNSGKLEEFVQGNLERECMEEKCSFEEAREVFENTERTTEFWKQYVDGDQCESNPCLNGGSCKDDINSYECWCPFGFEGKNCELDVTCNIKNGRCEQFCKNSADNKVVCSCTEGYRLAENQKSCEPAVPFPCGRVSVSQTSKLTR", "test": "Procoagulant activity of the prepared Factor IXai", "format": "biochemical", "details": "final product", "protocol": "Preparation of Factor IXai ^13: Factor IXai was prepared by selectively modifying the active site histidine residue on Factor IXa, using dansyl-glu-gly-arg-chloromethylketone. Proplex was applied to a preparative column containing immobilized calcium-dependent monoclonal antibody to Factor IX. The column was washed, eluted with EDTA-containing buffer, and Factor IX in the eluate (confirmed as a single band on SDS-PAGE) was then activated by applying Factor XIa (incubating in the presence of CaCl2). Purified Factor IXa was reacted with a 100-fold molar excess of dansyl-glu-gly-arg chloromethylketone, and the mixture dialyzed. […] This material (Factor IXai) was then used for experiments following filtration (0.2 μm) and chromatography on DeToxi-gel columns, to remove any trace endotoxin contamination (in sample aliquots, there was no detectable lipopolysaccharide). IXai was subsequently frozen into aliquots at −80° C. until the time of use. For those experiments in which IXai was used, it was given as a single intravenous bolus at the indicated times and at the indicated doses."}, "[3]": {"system": "left circumflex coronary artery occlusion", "details": "dogs; cited from earlier work"}, "mouse model of stroke": {"system": "mouse model of stroke", "test": "Mouse model of stroke, thrombolytic versus P-selectin antagonist", "details": "in vivo", "source_text": "The present invention provides for treatment of ischemic disorders by inhibiting the ability of the neutrophil, monocyte or other white blood cell to adhere properly. This may be accomplished removing the counter ligand, such as CD18. […] The endothelial cells on the surface of the vessels in the subject may also be a target for treatment. […] The present invention may be used in conjunction with a thrombolytic therapy to increase efficacy of such therapy or to enable lower doses of such therapy to be administered to the subject so as to reduce side effects of the thrombolytic therapy."}, "acute ischemic stroke": {"system": "acute ischemic stroke", "details": "within 7 hours of stroke onset; cited from earlier work"}, "stroke": {"system": "stroke", "details": "within 2 hours of stroke; cited from earlier work"}, "[4]": {"details": "300 μg/kg i.v. just prior to surgery, 24 hours"}, "[5]": {"details": "Table II, Experimental group mean"}}, "note": "Entries after “also recorded” stand apart in the source; their conditions may differ.", "data": [{"substance": "Factor IXai: Factor IXa with active site histidine modified by dansyl-glu-gly-arg-chloromethylketone; competitive inhibitor of Factor IXa", "values": [{"measurement": "cerebral infarction volume", "setting": "[1]; 300 μg/kg given after MCA occlusion, following removal of the occluding suture, vs vehicle", "result": "significantly reduce cerebral infarction volumes"}, {"measurement": "cerebral infarct volume", "setting": "[1]; 300 μg/kg i.v. immediately prior to stroke, vs controls", "result": "smaller infarct volumes; also recorded: reduce cerebral infarct volumes"}, {"measurement": "mortality", "setting": "[1]; [4]", "result": "reduced mortality"}, {"measurement": "neurological deficits", "setting": "[1]; [4]", "result": "less neurological deficits"}, {"measurement": "inf vol", "setting": "[1]; [5]", "result": 3.47}, {"measurement": "occ dop 1", "setting": "[1]; [5]", "result": 0.16}, {"measurement": "occ dop 2", "setting": "[1]; [5]", "result": 0.43}, {"measurement": "reper dop", "setting": "[1]; [5]", "result": 0.53}, {"measurement": "sac dop", "setting": "[1]; Table II, Experimental group mean, at sacrifice", "result": 0.75}, {"measurement": "dopp", "setting": "[1]; Table II, Experimental group mean, baseline relative doppler flow", "result": 1.04}, {"measurement": "grade", "setting": "[1]; Table II, Experimental group mean, neurological grade", "result": 1.67}, {"measurement": "optimal dose (infarct volume dose-response)", "setting": "[1]; doses 300, 600, 1200 μg/kg immediately prior to stroke", "result": 0.6, "unit": "mg/kg"}, {"measurement": "I/C Ratio", "setting": "[1]; mouse, in vivo", "result": 1.08}, {"measurement": "cerebral blood flow / perfusion at 24 hours", "setting": "[1]; mouse, in vivo, iv", "result": "improved cerebral perfusion; also recorded: significant increase in CBF"}, {"measurement": "accumulation of radiolabelled platelets in the ipsilateral hemisphere", "setting": "[2]", "result": "significant reduction"}, {"measurement": "ipsilateral accumulation of fibrin (immunoblot)", "setting": "cross-linked fibrin", "result": "no apparent increase"}, {"measurement": "apparent intracerebral hemorrhage", "setting": "intracerebral hemorrhage; [4]", "result": "free of apparent intracerebral hemorrhage"}, {"measurement": "ICH (spectrophotometric assay, corroborated by visual score)", "setting": "intracerebral hemorrhage; highest dose tested, 1200 μg/kg", "result": "increase in ICH"}, {"measurement": "ICH (spectrophotometric hemoglobin assay)", "setting": "intracerebral hemorrhage; mouse, in vivo", "result": "no significant increase in ICH"}, {"measurement": "APTT", "setting": "Protime and APTT in mice", "result": "79.9±8.9"}, {"measurement": "PT (protime)", "setting": "Protime and APTT in mice", "result": "13.4±0.7"}, {"measurement": "procoagulant activity", "setting": "Factor IXa", "result": "devoid of procoagulant activity"}, {"measurement": "activated partial thromboplastin time (APTT)", "setting": "[3]", "result": "did not prolong"}, {"measurement": "progressive coronary artery occlusion after electric current", "setting": "[3]", "result": "effective at preventing progressive coronary artery occlusion"}]}, {"substance": "rt-PA: recombinant human tissue plasminogen activator, Genentech", "values": [{"measurement": "increase of OD vs physiological saline solution", "setting": "intracerebral hemorrhage; i.v. after reperfusion, 10 mg/kg", "result": 1.8, "unit": "fold"}, {"measurement": "visual ICH score", "setting": "intracerebral hemorrhage; stroke model, rt-PA after reperfusion", "result": "increase in the visual ICH score"}, {"measurement": "hemorrhaging", "setting": "mouse model of stroke", "result": "some visible hemorrhaging"}, {"measurement": "stroke disorder", "setting": "mouse model of stroke", "result": "improvement of the stroke disorder"}, {"measurement": "rate of hemorrhagic conversion", "setting": "acute ischemic stroke", "result": "7-20%"}, {"measurement": "reduction of infarct size", "setting": "stroke", "result": "up to 77%"}]}]}
